Data from ChEMBL document CHEMBL3044672, “N9- and N7-(Chloromethyl Phenymethyl)Chloropurine Derivatives from , '-Dichloroxylenes: Synthesis and Anticancer Activity” (2005).

Legend:
Format in all cases: functional
UACC-257 = assay: Cytotoxicity against Homo sapiens (human) UACC257 cells after 48 hr by sulforhodamine B assay; conditions: UACC-257, 48 h
IGROV-1 = assay: Cytotoxicity against Homo sapiens (human) IGROV1 cells after 48 hr by sulforhodamine B assay; conditions: IGROV-1, 48 h
HCT-116 = assay: Cytotoxicity against Homo sapiens (human) HCT116 cells after 48 hr by sulforhodamine B assay; conditions: HCT-116, 48 h
MDA-MB-435 = assay: Cytotoxicity against Homo sapiens (human) MDA-MB-435 cells after 48 hr by sulforhodamine B assay; conditions: MDA-MB-435, 48 h
SK-MEL-2 = assay: Cytotoxicity against Homo sapiens (human) SK-MEL-2 cells after 48 hr by sulforhodamine B assay; conditions: SK-MEL-2, 48 h
U-251 = assay: Cytotoxicity against Homo sapiens (human) U251 cells after 48 hr by sulforhodamine B assay; conditions: U-251, 48 h
HOP-92 = assay: Cytotoxicity against Homo sapiens (human) HOP92 cells after 48 hr by sulforhodamine B assay; conditions: HOP-92, 48 h, read-out: LC50 (the source's name)
CCRF-CEM = assay: Cytotoxicity against Homo sapiens (human) CCRF-CEM cells after 48 hr by sulforhodamine B assay
TK-10 = assay: Cytotoxicity against Homo sapiens (human) TK10 cells after 48 hr by sulforhodamine B assay; conditions: TK-10, 48 h
ACHN = assay: Cytotoxicity against Homo sapiens (human) ACHN cells after 48 hr by sulforhodamine B assay
UO-31 = assay: Cytotoxicity against Homo sapiens (human) UO31 cells after 48 hr by sulforhodamine B assay; conditions: UO-31, 48 h
HCC 2998 = assay: Cytotoxicity against Homo sapiens (human) HCC2998 cells after 48 hr by sulforhodamine B assay; conditions: HCC 2998, 48 h
[1] = Cytotoxicity against Homo sapiens (human) NCI-ADR-RES cells after 48 hr by sulforhodamine B assay
HCT-15 = assay: Cytotoxicity against Homo sapiens (human) HCT15 cells after 48 hr by sulforhodamine B assay; conditions: HCT-15, 48 h
MCF7 = assay: Cytotoxicity against Homo sapiens (human) MCF7 cells assessed as cell growth at 10^-4 M after 48 hr by Alamar blue assay; conditions: MCF7, 48 h, read-out: Activity
M14 = assay: Cytotoxicity against Homo sapiens (human) M14 cells after 48 hr by sulforhodamine B assay; conditions: M14, 48 h
OVCAR-3 = assay: Cytotoxicity against Homo sapiens (human) OVCAR3 cells after 48 hr by sulforhodamine B assay; conditions: OVCAR-3, 48 h
T47D = assay: Cytotoxicity against Homo sapiens (human) T47D cells after 48 hr by sulforhodamine B assay
MOLT-4 = assay: Cytotoxicity against Homo sapiens (human) MOLT4 cells after 48 hr by sulforhodamine B assay; conditions: MOLT-4, 48 h
DU-145 = assay: Cytotoxicity against Homo sapiens (human) DU145 cells after 48 hr by sulforhodamine B assay; conditions: DU-145, 48 h
Hs-578T = assay: Cytotoxicity against Homo sapiens (human) Hs 578T cells after 48 hr by sulforhodamine B assay
NCI-H226 = assay: Cytotoxicity against Homo sapiens (human) NCI-H226 cells after 48 hr by sulforhodamine B assay; conditions: NCI-H226, 48 h
CAKI-1 = assay: Cytotoxicity against Homo sapiens (human) Caki1 cells after 48 hr by sulforhodamine B assay; conditions: CAKI-1, 48 h
NCI-H460 = assay: Cytotoxicity against Homo sapiens (human) NCI-H460 cells after 48 hr by sulforhodamine B assay; conditions: NCI-H460, 48 h
SW-620 = assay: Cytotoxicity against Homo sapiens (human) SW620 cells after 48 hr by sulforhodamine B assay; conditions: SW-620, 48 h
786-0 = assay: Cytotoxicity against Homo sapiens (human) 786-0 cells after 48 hr by sulforhodamine B assay; conditions: 786-0, 48 h
SK-MEL-28 = assay: Cytotoxicity against Homo sapiens (human) SK-MEL-28 cells after 48 hr by sulforhodamine B assay; conditions: SK-MEL-28, 48 h
OVCAR-5 = assay: Cytotoxicity against Homo sapiens (human) OVCAR5 cells after 48 hr by sulforhodamine B assay; conditions: OVCAR-5, 48 h
SF-295 = assay: Cytotoxicity against Homo sapiens (human) SF295 cells after 48 hr by sulforhodamine B assay; conditions: SF-295, 48 h
NCI-H322M = assay: Cytotoxicity against Homo sapiens (human) NCI-H322M cells after 48 hr by sulforhodamine B assay
A498 = assay: Cytotoxicity against Homo sapiens (human) A498 cells after 48 hr by sulforhodamine B assay; conditions: A498, 48 h
A549 = assay: Cytotoxicity against Homo sapiens (human) A549 cells after 48 hr by sulforhodamine B assay; conditions: A549, 48 h
[2] = read-out: LC50 (the source's name)

Structure (SMILES): ClCc1cccc(Cn2cnc3ncnc(Cl)c32)c1
- GI50 (UACC-257): 1.94 µM
- LC50 (concentration killing 50% of cells) (UACC-257): 18.6 µM
- TGI (UACC-257): 5.49 µM
- GI50 (IGROV-1): 3.38 µM
- LC50 (IGROV-1): 5.88 µM
- TGI (IGROV-1): 13.8 µM
- GI50 (HCT-116): 1.77 µM
- TGI (HCT-116): 5.24 µM
- CC50 (HCT-116; [2]): 9.54 µM
- GI50 (MDA-MB-435): 3.46 µM
- LC50 (MDA-MB-435): 39.8 µM
- TGI (MDA-MB-435): 12.9 µM
- GI50 (SK-MEL-2): 5.75 µM
- LC50 (concentration killing 50% of cells) (SK-MEL-2): 6.76 µM
- TGI (SK-MEL-2): 22.9 µM
- GI50 (U-251): 1.94 µM
- LC50 (concentration killing 50% of cells) (U-251): > 100 µM
- TGI (U-251): 3.98 µM
- CC50 (HOP-92): 52.5 µM
- GI50 (CCRF-CEM): 6.91 µM
- TGI (CCRF-CEM): 22.4 µM
- CC50 (CCRF-CEM; [2]): 60.2 µM
- GI50 (TK-10): 1.77 µM
- TGI (TK-10): 3.31 µM
- CC50 (TK-10; [2]): 6.3 µM
- GI50 (ACHN): 1.86 µM
- TGI (ACHN): 3.54 µM
- CC50 (ACHN; [2]): 7.76 µM
- GI50 (UO-31): 1.54 µM
- LC50 (concentration causing 50% net cell kill) (UO-31): 26.9 µM
- TGI (UO-31): 3.09 µM
- GI50 (HCC 2998): 1.69 µM
- TGI (HCC 2998): 3.23 µM
- CC50 (HCC 2998; [2]): 40.7 µM
- GI50 [1]: 2.75 µM
- LC50 (concentration killing 50% of cells) [1]: 81 µM
- TGI [1]: 9.77 µM
- GI50 (HCT-15): 1.94 µM
- TGI (HCT-15): 4.36 µM
- CC50 (HCT-15; [2]): > 100 µM
- growth at 100 µM (MCF7): 1%
- GI50 (M14): 3.09 µM
- LC50 (M14): 67.6 µM
- TGI (M14): 14.5 µM
- GI50 (OVCAR-3): 1.77 µM
- LC50 (OVCAR-3): 43.6 µM
- TGI (OVCAR-3): 3.23 µM
- GI50 (T47D): 0.21 µM
- LC50 (T47D): 2.88 µM
- TGI (T47D): 0.5 µM
- GI50 (MOLT-4): 10.7 µM
- TGI (MOLT-4): 29.5 µM
- CC50 (MOLT-4; [2]): 81.3 µM
- GI50 (DU-145): 15.1 µM
- TGI (DU-145): 30.9 µM
- GI50 (Hs-578T): 18.2 µM
- LC50 (Hs-578T): 97.7 µM
- TGI (Hs-578T): 42.6 µM
- GI50 (NCI-H226): 3.16 µM
- TGI (NCI-H226): 8.7 µM
- CC50 (NCI-H226; [2]): 9.33 µM
- GI50 (CAKI-1): 2.13 µM
- TGI (CAKI-1): 4.07 µM
- CC50 (CAKI-1; [2]): > 100 µM
- GI50 (NCI-H460): 2.08 µM
- TGI (NCI-H460): 4.46 µM
- CC50 (NCI-H460; [2]): 91.2 µM
- GI50 (SW-620): 15.1 µM
- TGI (SW-620): 32.4 µM
- CC50 (SW-620; [2]): 7.41 µM
- GI50 (786-0): 2.04 µM
- LC50 (786-0): 70.8 µM
- TGI (786-0): 4.07 µM
- GI50 (SK-MEL-28): 1.81 µM
- LC50 (concentration killing 50% of cells) (SK-MEL-28): 42.6 µM
- TGI (SK-MEL-28): 3.54 µM
- GI50 (OVCAR-5): 6.76 µM
- TGI (OVCAR-5): 19.9 µM
- CC50 (OVCAR-5; [2]): > 100 µM
- GI50 (SF-295): 6.3 µM
- TGI (SF-295): 19.1 µM
- CC50 (SF-295; [2]): 64.6 µM
- GI50 (NCI-H322M): 1.99 µM
- TGI (NCI-H322M): 3.46 µM
- CC50 (NCI-H322M; [2]): 8.54 µM
- GI50 (A498): 18.2 µM
- LC50 (lethal concentration, 50% cell kill) (A498): 6.6 µM
- TGI (A498): 36.3 µM
- GI50 (A549): 17.4 µM
- TGI (A549): 39.8 µM
- CC50 (A549; [2]): 91.2 µM
